Measurements reported in ChEMBL document CHEMBL4673354, “N-(Methyloxycarbonyl)thiophene sulfonamides as high affinity AT2 receptor ligands” (Bioorg Med Chem, 2021).

How the values were obtained:
[1] = Oral bioavailability in rat; format: ADME, organism-based; conditions: in vivo
[2] = Apparent permeability across apical to basolateral side and basolateral to apical side in human Caco-2 cells at 5 uM measured up to 60 mins by LC-MS/MS analysis; format: ADME, cell-based

| SMILES | bioavailability [1] | Papp at 1 h, 5 µM [2] |
| --- | --- | --- |
| COc1ccc2c(c1OCc1ccccc1)CC(C(=O)O)N(C(=O)C(c1ccccc1)c1ccccc1)C2 (centres undefined) | 33% |  |
| CCCCOC(=O)NS(=O)(=O)c1sc(CC(C)C)cc1-c1cccc(Cn2ccnc2)c1 |  | 3.4 ×10⁻⁶ cm/s |
| CCCCOC(=O)NS(=O)(=O)c1sc(CC(C)C)cc1-c1cccc(C(=O)Cn2cnc3cc(C)c(C)cc32)c1 |  | 0.4 ×10⁻⁶ cm/s |
| COc1ccc2c(c1OCc1ccccc1)C[C@@H](C(=O)O)N(C(=O)C(c1ccccc1)c1ccccc1)C2 [OLODANRIGAN] |  | 1.8 ×10⁻⁶ cm/s |
